# From patent publication US20070292967A1, “Assay for Ligands of the Ecdysone Receptor” (COMMONWEALTH SCIENTIFIC AND INDUSTRIAL RESEARCH OR, priority 2003, published 2007)
# Values joined by “and” are separate entries in the source; they are usually repeats but may differ in a detail not shown here. Equal entries are not always repeated.
# Tests used:
# Assay type in all cases: binding
# [1] = target: MpLBD, recombinant M. persicae ecdysone receptor (Myzus persicae, UniProt A3EZJ9); test: manual radioligand-based competitive inhibition assay ([3H]ponasterone A), MpLBD; conditions: radioligand-based assay
# Method: The ability of inokosterone and fluorescent conjugates thereof to bind to recombinant M. persicae ecdysone receptor was assessed using the conventional radioligand binding assay in a competetive inhibition format (adapted from Koelle et al., 1991).
# These procedures were performed manually, as follows. Assays were performed in EcR40 buffer [25 mM Hepes, 40 mM KCl, 10% glycerol, 1 mM sodium EDTA, 3 mM sodium azide] containing 0.5 mg/ml bovine serum albumin (BSA). An extract containing recombinant M. persicae edcdysone receptor, MpLBD, was prepared as described above and diluted in EcR40 buffer containing 0.5 mg/ml BSA to a concentration that generated filter counts around 10 000 cpm when the assay was done in the absence of competing ligands. […] Assays were set up to contain different final concentrations of fluorescent ecdysteroid by including the appropriate volumes of the relevant stock solutions. […] Each incubation was performed in a final volume of […] at room temperature (22° C.) for 90 min, whereupon it was held on ice until the filter adsorption/wash steps could be performed. Three 140 μl aliquots from each completed incubation were applied to glass microfibre filters (GF/C 24 mm diameter, Whatman, Cat. No. 1822024); i.e., every incubation generated three filters, each of which had been wet using 140 μl of the incubation mixture. After exposure to the liquid for 30 sec at room temperature, the wet filter was transferred to a vacuum sinter apparatus (Pyrex Filter Holder, Millipore Corp., Cat. No. XX1002500) and washed rapidly. Washing was done using 2×5 ml of ice-cold EcR40 buffer, intersperced with 3×0.5 ml buffer applied around the circumference of the filter to ensure that its edges were thoroughly rinsed. The damp filter was then transferred to a scintillation vial. When all the filters had been thus processed, 7 ml Packard InstaGel Plus scintillant was added to each scintillation vial. The sealed vials were vortexed and then incubated at room temperature for at least 2 h, during which time the filters became transparent. The vials were then scintillation counted (1 min per filter, tritium program, Packard TriCarb 2100TR scintillation counter). Datapoints were reported as the mean cpm value ±SEM for the three replicate filters arising from each incubation.
# The inhibitor concentration at this midpoint was deemed to be the IC50 value for the inhibitor.
# [2] = target: T1, MpLBD (Myzus persicae, UniProt A3EZJ9); test: miniaturized automated radioligand-based competition assay, MpLBD; conditions: 1.3 nM [3H]ponasterone A, no CHAPS, read-out: Ki from radioligand-based MpLBD assay
# T1 sequence (A3EZJ9 70-308): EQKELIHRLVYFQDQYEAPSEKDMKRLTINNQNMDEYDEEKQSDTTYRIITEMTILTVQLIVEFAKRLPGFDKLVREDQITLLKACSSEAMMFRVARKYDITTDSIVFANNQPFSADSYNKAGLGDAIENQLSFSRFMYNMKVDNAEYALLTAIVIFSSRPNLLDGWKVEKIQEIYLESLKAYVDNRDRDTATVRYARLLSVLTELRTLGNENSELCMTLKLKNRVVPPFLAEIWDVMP
# T1 sequence (A3EZK0 32-259 partner): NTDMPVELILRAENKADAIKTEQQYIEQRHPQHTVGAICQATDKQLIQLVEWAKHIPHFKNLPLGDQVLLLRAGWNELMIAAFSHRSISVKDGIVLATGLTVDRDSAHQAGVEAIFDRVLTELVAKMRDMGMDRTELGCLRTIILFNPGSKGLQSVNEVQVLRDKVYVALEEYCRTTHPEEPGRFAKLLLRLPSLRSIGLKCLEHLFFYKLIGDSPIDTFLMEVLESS
# Method: (§1) Subsequently, a miniaturized and automated version of the radioligand-based competition assay was used with MpLBD and BtLBD to obtain Ki values for the non-radioactive, non-fluorescent ecdysteroids that would later be used to validate the competitive inhibition format of the FP assay. While the concept of the assay was unchanged from that described above, some aspects of its execution were different. […] The mixtures were again allowed to reach equilibrium, but this time for 4 h at room temperature. The MpLBD was then captured on a 96-filter array (Unifilter-96 GF/C, Packard, Cat. No. 6005174) and rinsed using the wash tool and vacuum block of the Biomek 2000. The back of each filter-plate was then manually sealed using a sheet of Packard BackSeal, and 25 μl Packard MicroScint-20 scintillation fluid was dispensed into each well. The top of each plate was sealed with Packard TopSeal-A and the filters were allowed to solvate overnight. […] Since the amount of bound radioactivity was at most 28% of the total present, no additional corrections for ligand depletion were applied.
# [3] = target: T2, BtLBD (Bemisia tabaci, UniProt A0A142K0N3); test: miniaturized automated radioligand-based competition assay, BtLBD; conditions: 1.3 nM [3H]ponasterone A, no CHAPS, read-out: Ki from radioligand-based BtLBD assay
# Method: as §1
# [4] = target: T1, MpLBD; test: FP competitive inhibition assay with MB4628 tracer, MpLBD; conditions: 5 nM functional MpLBD, 36 nM MB4628, no CHAPS, Cheng-Prusoff; read-out: FP-derived Ki, MpLBD
# Method: (§2) For competitive inhibition assays, each well contained standard FP assay buffer containing 36 nM MB4628 and either 5 nM functional MpLBD or 6 nM functional BtLBD. The BtLBD assays, but not the MpLBD ones, were routinely done in the presence of 2 mM CHAPS. The final volume of all assays were 250 μl.
# (§3) The inhibitor concentration at this midpoint was deemed to be the IC50 value for the inhibitor. IC50 values were converted to Ki values using the Cheng-Prusoff equation (Cheng & Prusoff, 1973), as follows: Ki=IC50/(1+([MB4628]tot/Kd)) where [MB-4628]tot is the total concentration of MB4628 in the assay, and Kd is the dissociation constant for MB4628 with the relevant receptor under the conditions of the assay. The Kd values for use in this equation were calculated from the basic FP titration curves (FIG. 3) using the knowledge that the receptor concentration at the titration midpoint is the value at which the receptor is half-saturated with MB4628. The Kd is the free MB4628 concentration at this point, and must therefore be: Kd=[MB4628]tot−([receptor]midpoint)/2
# [5] = target: T2, BtLBD; test: FP competitive inhibition assay with MB4628 tracer, BtLBD; conditions: 6 nM functional BtLBD, 36 nM MB4628, 2 mM CHAPS, Cheng-Prusoff; read-out: FP-derived Ki, BtLBD
# Method: as §2, §3
Molecule,ability to compete with [3H]ponasterone A / bind to MpLBD (in words) [1],Ki [2],Ki [3] [nM],Ki [4] [nM],Ki [5] [nM]
CC(CC[C@@H](O)C(C)(O)C1CC[C@@]2(O)C3=CC(=O)[C@@H]4C[C@@H](O)[C@@H](O)CC4(C)C3CCC12C)COS(=O)(=O)c1cccc2c(N(C)C)cccc12 (stereo partly shown) [MB4622],highly effective ligand,,,,
CC(C)CC[C@@H](O)[C@](C)(O)[C@H]1CC[C@@]2(O)C3=CC(=O)[C@@H]4C[C@@H](O)[C@@H](O)C[C@]4(C)[C@H]3CC[C@]12C [ponasterone A],,0.28 nM and ~0.3 nM,4.8,1,7.4
CC(C)CC[C@@H](O)[C@](C)(O)[C@H]1CC[C@@]2(O)C3=CC(=O)[C@]4(O)C[C@@H](O)[C@@H](O)C[C@]4(C)[C@H]3[C@H](O)C[C@]12C [muristerone A],,30 nM,5.3,149,27
"2β,3β,14α,20R,22R,25-hexahydroxy-5β-cholest-7-ene-6-one [20-hydroxyecdysone]",,100 nM,240,1490,994
